Data as given in PubChem BioAssay AID1963845 (Molecular Pharmacology Branch, DTP, NCI, 2024).
pIC50: −log10 of the molar value.

Test system: 429239-143-T-J1-PDC complex spheroid viability
Experiment: Anticancer human tumor 429239-143-T-J1-PDC patient-derived small cell lung carcinoma cell line growth inhibition [POLQ]
Details: for pIC50: curve of first compound; for viability, T/C: stronger effect = lower value
Procedure, shortened: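 Growth inhibition in 3D: complex spheroids (tumor PDC, HUVEC, MSC) treated with POLQ inhibitor combinations; where Cmax unknown, highest tested concentration 10 microM, except SN-38 at 1 microM.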

[1] = second compound 0.0316 µM, first compound 0.0316 µM
[2] = second compound 0.0316 µM, first compound 0.1 µM
[3] = second compound 0.0316 µM, first compound 0.316 µM
[4] = second compound 0.0316 µM, first compound 1 µM
[5] = second compound 0.0316 µM, first compound 3.16 µM
[6] = second compound 0.0316 µM, first compound 10 µM
[7] = second compound 0.1 µM, first compound 0.0316 µM
[8] = second compound 0.1 µM, first compound 0.1 µM
[9] = second compound 0.1 µM, first compound 0.316 µM
[10] = second compound 0.1 µM, first compound 1 µM
[11] = second compound 0.1 µM, first compound 3.16 µM
[12] = second compound 0.1 µM, first compound 10 µM
[13] = second compound 0.316 µM, first compound 0.0316 µM
[14] = second compound 0.316 µM, first compound 0.1 µM
[15] = second compound 0.316 µM, first compound 0.316 µM
[16] = second compound 0.316 µM, first compound 1 µM
[17] = second compound 0.316 µM, first compound 3.16 µM
[18] = second compound 0.316 µM, first compound 10 µM
[19] = second compound 1 µM, first compound 0.0316 µM
[20] = second compound 1 µM, first compound 0.1 µM
[21] = second compound 1 µM, first compound 0.316 µM
[22] = second compound 1 µM, first compound 1 µM
[23] = second compound 1 µM, first compound 3.16 µM
[24] = second compound 1 µM, first compound 10 µM
[25] = second compound 3.16 µM, first compound 0.0316 µM
[26] = second compound 3.16 µM, first compound 0.1 µM
[27] = second compound 3.16 µM, first compound 0.316 µM
[28] = second compound 3.16 µM, first compound 1 µM
[29] = second compound 3.16 µM, first compound 3.16 µM
[30] = second compound 3.16 µM, first compound 10 µM
[31] = second compound 10 µM, first compound 0.0316 µM
[32] = second compound 10 µM, first compound 0.1 µM
[33] = second compound 10 µM, first compound 0.316 µM
[34] = second compound 10 µM, first compound 1 µM
[35] = second compound 10 µM, first compound 3.16 µM
[36] = second compound 10 µM, first compound 10 µM
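Note: luminescence signal used as surrogate measure of viable cells; spheroids exposed to compounds for seven days before readout.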
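Throughout, for viability, T/C: 100% = DMSO vehicle control viability as luminescence relative to vehicle.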

## C#Cc1c(F)ccc2cc(O)cc(-c3ncc4c(N5CC6CCC(C5)N6)nc(OCC56CCCN5CC(F)C6)nc4c3F)c12 (centres undefined) + Cc1cccc(N(C)C(=O)C2C(O)CCN2c2nc(C)cc(C(F)(F)F)c2C#N)c1
Second compound 0.0316 µM
  pIC50: < 5.00
Second compound 0.1 µM
  pIC50: < 5.00
Second compound 0.316 µM
  pIC50: < 5.00
Second compound 1 µM
  pIC50: < 5.00
Second compound 3.16 µM
  pIC50: < 5.00
Second compound 10 µM
  pIC50: < 5.00
[1]
  viability, T/C: 91%
[2]
  viability, T/C: 92.4%
[3]
  viability, T/C: 97.1%
[4]
  viability, T/C: 98.9%
[5]
  viability, T/C: 98.9%
[6]
  viability, T/C: 100%
[7]
  viability, T/C: 117%
[8]
  viability, T/C: 110%
[9]
  viability, T/C: 89.7%
[10]
  viability, T/C: 101%
[11]
  viability, T/C: 91.1%
[12]
  viability, T/C: 103%
[13]
  viability, T/C: 99.6%
[14]
  viability, T/C: 100%
[15]
  viability, T/C: 98.5%
[16]
  viability, T/C: 93.8%
[17]
  viability, T/C: 89.2%
[18]
  viability, T/C: 93.5%
[19]
  viability, T/C: 101%
[20]
  viability, T/C: 108%
[21]
  viability, T/C: 105%
[22]
  viability, T/C: 92.5%
[23]
  viability, T/C: 89.9%
[24]
  viability, T/C: 92.5%
[25]
  viability, T/C: 90.2%
[26]
  viability, T/C: 88.4%
[27]
  viability, T/C: 106%
[28]
  viability, T/C: 86.3%
[29]
  viability, T/C: 95.4%
[30]
  viability, T/C: 92%
[31]
  viability, T/C: 100%
[32]
  viability, T/C: 78.3%
[33]
  viability, T/C: 101%
[34]
  viability, T/C: 86%
[35]
  viability, T/C: 103%
[36]
  viability, T/C: 100%

## O=c1[nH]cc(F)c(=O)[nH]1 + Nc1ccc(C#CCN(C(=O)Cc2ncc(C(F)(F)F)cc2C(F)(F)F)c2ccc(F)cc2)nn1
Second compound 0.0316 µM
  pIC50: 5.49
Second compound 0.1 µM
  pIC50: 5.48
Second compound 0.316 µM
  pIC50: 5.39
Second compound 1 µM
  pIC50: 5.38
Second compound 3.16 µM
  pIC50: 5.60
Second compound 10 µM
  pIC50: 5.50
[1]
  viability, T/C: 98.3%
[2]
  viability, T/C: 105%
[3]
  viability, T/C: 96.6%
[4]
  viability, T/C: 80.8%
[5]
  viability, T/C: 50.7%
[6]
  viability, T/C: 31.6%
[7]
  viability, T/C: 107%
[8]
  viability, T/C: 105%
[9]
  viability, T/C: 104%
[10]
  viability, T/C: 81%
[11]
  viability, T/C: 51.5%
[12]
  viability, T/C: 35.2%
[13]
  viability, T/C: 100%
[14]
  viability, T/C: 110%
[15]
  viability, T/C: 104%
[16]
  viability, T/C: 82.8%
[17]
  viability, T/C: 56.7%
[18]
  viability, T/C: 30.7%
[19]
  viability, T/C: 115%
[20]
  viability, T/C: 99.7%
[21]
  viability, T/C: 105%
[22]
  viability, T/C: 77.9%
[23]
  viability, T/C: 56.3%
[24]
  viability, T/C: 31.5%
[25]
  viability, T/C: 98.1%
[26]
  viability, T/C: 105%
[27]
  viability, T/C: 102%
[28]
  viability, T/C: 80.2%
[29]
  viability, T/C: 43.3%
[30]
  viability, T/C: 32.1%
[31]
  viability, T/C: 104%
[32]
  viability, T/C: 97.6%
[33]
  viability, T/C: 106%
[34]
  viability, T/C: 83.1%
[35]
  viability, T/C: 51.1%
[36]
  viability, T/C: 34.1%
